One data set deals with HL-60 cells. Briefly: Cellular diversion of human leukemic cells (NBT). It counts as cell-based. The conditions noted are these: human leukemic cells (HL-60); index of normal cells.
For the next data set, the system named is gastric cancer cells. Briefly: Cellular diversion of gastric cancer cells (NBT). It counts as cell-based.
A further data set deals with Normal cells. The data set is described as follows: Apoptosis of normal cells. It counts as cell-based. The conditions noted are these: 50 ng/ml (Table 4). How it is done:
(§1) Cells ([…] were incubated in 10 ml IMDM plus […] heat-inactivated fetal calf serum. Samples were incubated for 24 hours with various concentrations of drugs. Control samples received the same amount of media, without drug addition. After 24 hours of incubation the samples were pelleted and fixed in ethanol […] for 15 minutes at 4° C.; after three washes in PBS, the cells were treated with RNase I 0.5 mg/ml for 15 minutes at 37° C. The cells were harvested by centrifugation and resuspended in 50 μg/ml propidium iodide in PBS. Analysis (upon acquisition of 10,000-20,000 events) was performed on a FACscan flow cytometer with the FL2 detector in logarithmic mode, using Lysis II software (Becton Dickinson). […]
(§2) For evaluation of apoptosis by flow cytometry, cells were fixed and permeabilized in 1% paraformaldehyde and ice-cold 70% ethanol. […] Green (apoptotic cells) and orange (total DNA) fluorescence were measured with a FACScan flow cytometer and analyzed with LYSIS II and CELLFIT programs. Data were analyzed by Student's t-test. […]
(§3) Untreated and treated HL-60 cells collected by centrifugation, washed in phosphate buffered saline and re-suspended at a concentration of 5×10^6 cells and 0.1% RNase A. The mixture was incubated at 37° C. for 30 min and then incubated for an additional 30 min at 37° C. […] DNA was precipitated with 0.5 N perchloric acid and quantitated using diphenylamine reagent. […]

For another data set, the system named is Malignant melanoma cells. Briefly: Apoptosis of malignant melanoma cells. It counts as cell-based. Conditions: 50 ng/ml. As to the method:
as §1, §2, §3

The next data set concerns Leukemic cells. Briefly: Inhibition of tumor cell proliferation, leukemic cells. It counts as cell-based, human. Conditions: 1 μg/ml, 72 hours. How it is done:
(§4) Human tumor cell lines: Hela leukemia HL-60, malignant melanocarcinoma B16, oral epidermoid carcinoma (KB), lung carcinoma (A549), breast carcinoma MCF-7, adenocarcinoma of stomach.
(§5) Animal tumor cell lines: Walker carcinoma, LLC-WRC-256, malignant melanoma (RMMI 1846), 3T3, and S-180 sarcoma (CCRF-180). All lines were routinely cultured in the RPMI1640 medium supplemented 20% fetal calf serum. The experiment was carried out in 96 microplate, each well had 5×10^5 cells and given desired concentration of 1 μg/ml (1×10^−6 g/ml) drug. Then the plate was incubated at […] in an atmosphere of humidified air enriched with 5 percent carbon dioxide for 72 hours.
(§6) Inhibition percent rate of tumor cell proliferation was obtained according to the bellow formula.

Data set [1] relates to Malignant melanoma of the pigmented layers of eyes. The data set is described as follows: Inhibition of tumor cell proliferation, malignant melanoma of eyes. It counts as cell-based. Conditions: 1 μg/ml, 72 hours. How it is done:
as §4, §5, §6

The next data set relates to L615 transplanted tumor. The data set is described as follows: Growth of transplanted tumor in mice. It counts as in vivo. Conditions: intraperitoneally, 20 mg/kg, sacrificed on the 12th day. As to the method: Male mice, weight 20-22 g, were used in the experiment. 1×10^7 tumor cells were injected to mouse and other drugs injected intraperitoneally began second day. All mice were sacrificed on the 12th day, isolated the tumor and weighed and calculated the inhibition rate of tumor weight.
The effect of HHT on the growth of animal transplanted tumor as illustrated by the Table 6.20 mg/kg of other drugs could inhibit the growth of L615 transplanted tumor.

The next data set relates to tyrosine kinase (TK). Briefly: Tyrosine kinase (TK) assay in HL-60 leukemia cells. Conditions: for % of control activity (TK): Table 8, concentration not given. It counts as cell-based, human. How it is done:
Tyrosine kinase (TK) Assay: TK was measured by a modification of the method of Braun et al. Briefly, H-60 leukemia cells were plated at a density of 5×10^5 cells in […], and divided control and treatments groups for incubation 24 hours at 37° C. with 5% CO2. The cells were collected by scraping, washed twice with phosphate-buffered saline, and resuspended at density of 10^6 cells/ml in 5 mM HEPEs buffer (pH 7.4). The cells were then resuspended in 1 ml of buffer containing 5 mM HEPES (pH 7.6), 1 mM MgCl2 and 1 mM EDTA, then placed on ice bath. The cell membrane was disrupted by ultra sound and centrifuged at 1,000×g for 10 minutes. The supernatant was ultra centrifuged at 30,000×g for 30 minutes at 4° C. The pellet was resuspended in 0.3 ml of buffer containing 25 mM HEOES, centrifuged at 12,000×g for 5 minutes. The resulting supernatant was used for TK assay. Content of protein was determined. 10 μg of protein placed in 20 mM HEPES (pH 7.6), 15 mM MgCl2, 10 mM ZnCl2 and 5% (v/v) nonidet P-40, with or without substrate [glutamic acid (GT), mg/ml]. After 5 minutes incubation at 25° C., the reaction was initiated by the addition of 25 μM [γ^32P] ATP (3 ci/mmol). After 10 minutes, the reaction was stopped by the addition of 20 mM cold ATP. 50 μl of the mixtures were spotted on glass microfiber filter discs and washed three times with cold trichloroacetic acid (TCA), contained 10 mM sodium pyrophosphate. Air dried. Radioactivity was determined by liquid scintillation spectrometry. The net TK activity was determined after correcting for endogenous TK activity.

For data set [2], the system named is NNK-induced pulmonary adenomas. The data set is described as follows: NNK-induced lung tumorigenesis. It counts as in vivo. Conditions: mice, 20 mg/kg daily by injection, NNK 10 μmol i.p., sixteen weeks. How it is done: Every group had 20 mice. […] For control group, each mouse was gave same volume of physiological saline. Three days later, mice were gave 10 μmol NNK (in 0.1 ml saline) by i.p. injection. Sixteen weeks after these treatments the mice were killed and pulmonary adenomas were counted. The statistical significance of bioassay data was determined by student's test.

The test system of a further data set is mice. The data set is described as follows: LD50 in mice. It counts as in vivo. Conditions: injection in abdominal cavity in mice. From the text: (§7) • 1. […] LD50 of HHT is much higher than majority anticancer drugs. The toxicology data of HHT mean that HHT is safe drug for treatment of cancer cells.
The next data set can be described thus: LD50 in mice. It counts as in vivo. Conditions: mouse, in vivo, intraperitoneal; injection in abdominal cavity in mice.
Excerpt: as §7

Data set [3] has as its system dogs. Conditions: dog, in vivo.
Method: (§8) Forty dogs were used. Body weight, food consumption, general observations, laboratory tests, and postmortem examinations were determined.
(§9) Twenty normal adult dogs had weight approximately 10 kg±1 kg used in experiments. Toxic doses for dogs: 0.15 mg/kg/days×7 and 0.30 mg/kg/days×7 of HHT was injected as the toxic doses.
(§10) For HHT treatment group, at least eight dogs that died early in the observation period and eight dogs that died late were examined.
Data set [4] relates to dogs. The data set is described as follows: Short-term toxicity in dogs.
Method: as §8, §9, §10

SMILES strings stand for the structures. Read-outs that look alike come from different tables or passages of the source.

Consider `COC(=O)C[C@](O)(CCCC(C)(C)O)C(=O)O[C@@H]1C(OC)=C[C@]23CCCN2CCc2cc4c(cc2[C@H]13)OCO4` [C-HHT], for which the results for the “NBT (%)” value with HL-60 cells and in the data set on gastric cancer cells were 64 ± 8.0 % and 57 ± 8.9 %, respectively. Moreover, the results for the “Apoptosis (%)” value with Normal cells and in the data set with Malignant melanoma cells were 19.2 ± 2.5 % and 43.8 ± 4.2 %, respectively. Besides, the “Inhibition (%)” value with Leukemic cells worked out at 74.1 ± 10.8%; in data set [1], 83.1 ± 9.8%. The “Inhibition (%) of transplanted tumor (tumor weight)” value in the data set on L615 transplanted tumor is 67.8 ± 6.0%. For the same molecule, the “% of control activity (TK)” value in the data set on tyrosine kinase (TK) turned out to be 20.0 ± 5.0%. Moreover, in [2], the “Tumor incidence (%)” value was 21.7 ± 4.8 %. Further, the LD50 in the data set with mice is listed as 4.0 mg/kg.

`COC(=O)C[C@](O)(CCCC(C)(C)O)C(=O)O[C@@H]1C(OC)=C[C@]23CCCN2CCc2cc4c(cc2[C@H]13)OCO4` [HHT, Homoharringtonine]: the inhibition at 1 µg/mL in [1] turned out to be 80 ± 9.2%. Besides, in the data set on tyrosine kinase (TK) (10^−6 M), the “inhibition of TK activity” value was found to be 99.9%. In “LD50 in mice”, the LD50 turned out to be 4.07 mg/kg. In addition, the delayed toxicity result in the data set on dogs [3] is on record as “No significant delayed toxicity”. For the same molecule, in the data set on dogs [3], the “major target organs involved in toxicity” value was “G.I. tract, heart and hematopoietic organs”. Also, the Heart rate with dogs [3] (0.1 mg/kg/day) was found to be 205 beat/min; in the data set on dogs [3] (0.2 mg/kg/day) it was 230 beat/min; in the data set with dogs [3] (0.3 mg/kg/day), 259 beat/min; in the data set with dogs [4] (0.1 mg/kg/d × 7, ♀), 208 beat/min; with dogs [4] (0.2 mg/kg/d × 7, ♀), 232 beat/min; with dogs [4] (0.3 mg/kg/d × 7, ♀), 260 beat/min. The Leukocyte count in the data set on dogs [3] (0.1 mg/kg/day) is given as 3.90 ×10^3/mm^3; in the data set on dogs [3] (0.2 mg/kg/day), 3.58 ×10^3/mm^3; in the data set on dogs [3] (0.3 mg/kg/day) it was 3.20 ×10^3/mm^3; in the data set on dogs [4] (0.1 mg/kg/d × 7, ♀), 3.91 ×10^3/mm^3; in the data set with dogs [4] (0.2 mg/kg/d × 7, ♀) it was 3.65 ×10^3/mm^3; with dogs [4] (0.3 mg/kg/d × 7, ♀) it was 3.25 ×10^3/mm^3.

As to `COC(=O)C[C@](O)(CCCC(C)(C)O)C(=O)O[C@@H]1C(OC)=C[C@]23CCCN2CCc2cc4c(cc2[C@H]13)OCO4` [S-HHT], in the data set with HL-60 cells, the “NBT (%)” value is recorded as 63 ± 7.8 %. For the same molecule, the “Apoptosis (%)” value was determined as 18.0 ± 2.0 % in the data set with Normal cells and 43.0 ± 6.0 % in the data set with Malignant melanoma cells. Besides, the “Inhibition (%)” value came to 72.5 ± 11.6% in the data set with Leukemic cells and 82.5 ± 10.2% in data set [1]. Moreover, the “Inhibition (%) of transplanted tumor (tumor weight)” value with L615 transplanted tumor is 69.2 ± 7.0 %. Also, the “% of control activity (TK)” value in the data set with tyrosine kinase (TK) stood at 20.8 ± 4.8 %. Moreover, the “Tumor incidence (%)” value in [2] is 26.5 ± 4.9 %. In the data set on mice, the LD50 amounted to 4.20 mg/kg.

As usually defined, the LD50 is the dose expected to kill half of the subjects tested. Broadly, the inhibition is the relative decrease from the control value, in per cent. A high value points to strong suppression.

(Values after US20100240887A1, “New methods of producing HHT” (priority 2009, published 2010).)
